Experiment: Involuntary cough on administration of the active agent
Assay type: in vivo

cough (administered via an alternative route to pulmonary inhalation): the cough is not induced
involuntary cough (administered via pulmonary inhalation): induces an involuntary cough
SMILES: CN(C)CCCN1c2ccccc2CCc2ccc(Cl)cc21 [clomipramine]

Source: US20090068276A1, “Pharmaceutical compositions” (Vectura Group plc, priority 2007, published 2009)
